Measurements from US20250243220A1, “ATR INHIBITORS” (APREA THERAPEUTICS, INC., priority 2022, published 2025).

Key:
Assay type in all cases: cell-based
[1] = system: SKOV-3; experiment: IC50 assay by Western blot (APH-treated cells), SKOV-3; conditions: SKOV-3 cells; for IC50: Homo sapiens, SK-OV-3
Description: (§1) E. Treatment of Cells for IC50 Assay by Western Blot
(§2) The compound is stored as a 1 mM stock solution prepared in accordance with the Receipt of Compound SOP. The stock solution is diluted in cell media in two separate 1:10 dilution series.
(§3) 1. Arrange twelve 15-mL centrifuge tubes in a rack in two series and label them in accordance with Dilutions Series 1 and Dilution Series 2 shown in Table 1 and Table 2, respectively.
(§4) 2. Place 2.5 mL of prewarmed cell media in each of the […]. Place 2.25 mL of prewarmed cell media in the remaining tubes.
(§5) 3. Add 7.5 μL of 1 mM compound stock solution in the 3 μM tube. Mix well.
(§6) 4. Add 2.5 μL of 1 mM compound stock solution in the 1 μM tube. Mix well.
(§7) 5. For each series (separately), remove 250 μL from the leftmost tube and transfer to the next tube to the right. Repeat for each tube until the series is complete.
(§8) 6. Set aside the 1 μM tube, the 3 μM tube, and the 300 nM tube for discard.
(§9) 7. The cells to be treated will be in 6-well plates labeled by cell line. Remove the cells from the incubator and label the wells with the dosages to be administered.
(§10) 8. Arrange the dilution tubes in the rack in a manner that reflects the 6-well plate arrangement so as to avoid confusion when administering the dosage solutions to the appropriate wells.
(§11) 9. Aspirate the three wells in the top row of the first plate (labeled NT, APH+, and APH+) and replace with 2 mL fresh media (without drug compound).
(§12) 10. Aspirate the three wells in the bottom row of the first plate and replace each well with 2 mL of solution from the appropriate tube.
(§13) 11. Repeat step 10 for the next row of wells (top row second plate). and then for the final row of wells (bottom row second plate).
(§14) 12. Place both plates into the incubator for 30 minutes.
(§15) 13. After 30 minutes have elapsed, remove the plates from the incubator.
(§16) 14. Acquire stock solution of APH (5 mM) and add 2 μL of the APH stock solution to the center of each well except the well labeled NT.
(§17) 15. Swirl the plates carefully and gently to diffuse the APH throughout each well.
(§18) 16. Place the plates back in the incubator for 4 hours, at which point the cells will be harvested for analysis.
(§19) 17. Twenty minutes before harvesting (or 3 hours and 40 minutes after administration of APH), turn on a heat block suitable to heat Eppendorf tubes. Set the temperature to 95° C.
(§20) 18. Set up a number of Eppendorf tubes equal to the number of wells treated (i.e., twelve per two-plate drug administration), and label each tube with cell line, compound administered, dosage level, and date. Leave the tubes open.
(§21) 19. Add 200 mL DI water to a beaker.
(§22) 20. After 4 hours, remove treated plates from incubator.
(§23) 21. Aspirate media from all wells.
(§24) 22. Wash each well with 2 mL 1×PBS and aspirate.
(§25) 23. Sterilize vacuum line with 70% ethanol by spraying some into the nozzle while the vacuum is engaged. Shut off vacuum.
(§26) 24. Add Laemmli buffer to each well. For HCT116 Bcl/xl, OVCAR-3, and 22RV1 cells, add 300 μL per well; for OVCAR-8 and SKOV-3 cells, add 250 μL per well.
(§27) 25. Scrape the first well thoroughly. Place the scraper into the DI water between uses.
(§28) 26. Transfer the lysed cell debris mixture to the first tube carefully. The mixture will be viscous. Use a 1000-μL pipettor. Close the tube.
(§29) 27. Repeat steps 25 and 26 for each well.
(§30) 28. When all wells have been harvested, place all the tubes into the heat block. Place a weighted, heat-resistant object on top of the tubes to keep them closed.
(§31) 29. After 5 minutes, remove the tubes from the heat block and turn it off. Vortex each tube for 10 seconds. Be cautious of tubes popping open.
(§32) 30. Allow the tubes to come to room temperature and proceed to further analysis or store frozen at −20° C.

[2] = MEC (+APH)
[3] = system: HCT116 Bcl/xl; experiment: IC50 assay by Western blot (APH-treated cells), HCT116 Bcl/xl; conditions: for IC50: Homo sapiens, HCT-116
Description: as §1, §2, §3, §4, §5, §6, §7, §8, §9, §10, §11, §12, §13, §14, §15, §16, §17, §18, §19, §20, §21, §22, §23, §24, §25, §26, §27, §28, §29, §30, §31, §32

[4] = system: 22RV1; experiment: IC50 assay by Western blot (APH-treated cells), 22RV1; conditions: 22RV1 cells; for IC50: Homo sapiens
Description: as §1, §2, §3, §4, §5, §6, §7, §8, §9, §10, §11, §12, §13, §14, §15, §16, §17, §18, §19, §20, §21, §22, §23, §24, §25, §26, §27, §28, §29, §30, §31, §32

[5] = system: HCT Bcl/xl, OVCAR-3, OVCAR-8, SKOV-3, 22RV1 cell lines; experiment: Ave. IC50 across cell lines; conditions: average across cell lines
[6] = system: OVCAR-8; experiment: IC50 assay by Western blot (APH-treated cells), OVCAR-8; conditions: OVCAR-8 cells; for IC50: Homo sapiens
Description: as §1, §2, §3, §4, §5, §6, §7, §8, §9, §10, §11, §12, §13, §14, §15, §16, §17, §18, §19, §20, §21, §22, §23, §24, §25, §26, §27, §28, §29, §30, §31, §32

[7] = system: OVCAR-3; experiment: IC50 assay by Western blot (APH-treated cells), OVCAR-3; conditions: OVCAR-3 cells; for IC50: Homo sapiens
Description: as §1, §2, §3, §4, §5, §6, §7, §8, §9, §10, §11, §12, §13, §14, §15, §16, §17, §18, §19, §20, §21, §22, §23, §24, §25, §26, §27, §28, §29, §30, §31, §32

Structure (SMILES) | IC50 [1] | IC50 [3] | IC50 [4] | IC50 [5] | IC50 [6] | IC50 [7] | PALD (Percent Activity at Lowest Dose tested) SKOV-3 [1] | minimal effective concentration [2] | PALD (Percent Activity at Lowest Dose tested) HCT Bcl/xl [3] | PALD (Percent Activity at Lowest Dose tested) 22RV1 [4] | PALD (Percent Activity at Lowest Dose tested) OVCAR-8 [6] | PALD (Percent Activity at Lowest Dose tested) OVCAR-3 [7]
CNCc1cccc2c1OCCCCCC[C@H](O)CC(C)(C)S(=O)(=O)c1ccc(cc1)-c1cnc(N)c(n1)C(=O)N2 (single isomer, unassigned) [Compound G-1] | – | 7.77 nM | 7.02 nM | – | 4.97 nM | – | – | 4e-05 µM | (115%) | (111%) | (85%) | –
CNCc1cccc2c1OCCCCCC[C@@H](O)CC(C)(C)S(=O)(=O)c1ccc(cc1)-c1cnc(N)c(n1)C(=O)N2 (single isomer, unassigned) [Compound G-2] | 4.94 nM | 7.9 nM | 8.57 nM | – | – | – | (92%) | 4e-05 µM | (83%) | (86%) | – | –
CC1(C)C[C@H](O)CCCCCCOc2c(CN)cccc2NC(=O)c2nc(cnc2N)-c2ccc(cc2)S1(=O)=O (single isomer, unassigned) [Compound H-2] | – | 6.43 nM | – | – | – | – | – | 2e-05 µM | (89%) | – | – | –
CN(C)Cc1cccc2c1OCCCCCCC(C)(O)CC(C)(C)S(=O)(=O)c1ccc(cc1)-c1cnc(N)c(n1)C(=O)N2 (stereo not drawn) [Compound E, 5-amino-13-[(dimethylamino)methyl]-22-hydroxy-22,24,24-trimethyl-25,25-dioxo-15-oxa-25λ^6-thia-4,8,31-triazatetracyclo[24.2.2.1^2,6.0^9,14]hentriaconta-1(28),2,4,6(31),9(14),10,12,26,29-nonaen-7-one] | – | 6.5 nM | 3.28 nM | – | 6.47 nM | – | – | 8e-05 µM | (91%) | (72%) | (139%) | –
CN(C)Cc1cccc2c1OCCCCCCC(C)(O)CC1(CC1)S(=O)(=O)c1ccc(cc1)-c1cnc(N)c(n1)C(=O)N2 (stereo not drawn) [Compound F, 5-amino-13-[(dimethylamino)methyl]-22-hydroxy-22-methyl-25,25-dioxo-spiro[15-oxa-25λ^6-thia-4,8,31-triazatetracyclo[24.2.2.1^2,6.0^9,14]hentriaconta-1(28),2,4,6(31),9(14),10,12,26,29-nonaene-24,1′-cyclopropane]-7-one] | – | 14.1 nM | 10.8 nM | – | 31.5 nM | 8.23 nM | – | 0.000156 µM | (104%) | (96%) | (81%) | (86%)
CN(C)Cc1cccc2c1OCCCCCCC(O)CC(C)(C)S(=O)(=O)c1ccc(cc1)-c1cnc(N)c(n1)C(=O)N2 (stereo not drawn) [Compound G, 5-amino-13-[(dimethylamino)methyl]-22-hydroxy-24,24-dimethyl-25,25-dioxo-15-oxa-25λ^6-thia-4,8,31-triazatetracyclo[24.2.2.1^2,6.0^9,14]hentriaconta-1(28),2(31),3,5,9(14),10,12,26,29-nonaen-7-one] | 2.64 nM | 12.5 nM | 5.09 nM | – | – | 4.97 nM | (97%) | 8e-05 µM | (109%) | (104%) | – | (83%)

Now those with a lower IC50 [3], led by results:

IC50 [1] | IC50 [3] | IC50 [4] | IC50 [5] | IC50 [6] | IC50 [7] | Structure (SMILES) | PALD (Percent Activity at Lowest Dose tested) SKOV-3 [1] | minimal effective concentration [2] | PALD (Percent Activity at Lowest Dose tested) HCT Bcl/xl [3] | PALD (Percent Activity at Lowest Dose tested) 22RV1 [4] | PALD (Percent Activity at Lowest Dose tested) OVCAR-8 [6] | PALD (Percent Activity at Lowest Dose tested) OVCAR-3 [7]
2.62 nM | 4.63 nM | 2.99 nM | 3.37 nM | 4.47 nM | 2.15 nM | CNCc1cccc2c1OCCCCCCC(C)(O)CC1(CC1)S(=O)(=O)c1ccc(cc1)-c1cnc(N)c(n1)C(=O)N2 (racemic) [Compound B, 5-amino-22-hydroxy-22-methyl-13-(methylaminomethyl)-25,25-dioxo-spiro[15-oxa-25λ^6-thia-4,8,31-triazatetracyclo[24.2.2.1^2,6.0^9,14]hentriaconta-1(28),2,4,6(31),9(14),10,12,26,29-nonaene-24,1′-cyclopropane]-7-one] | (106%) | 4e-05 µM | (115%) | (141%) | (94%) | (121%)
– | 4.53 nM | 3.5 nM | 2.7 nM | 3.63 nM | 1.02 nM | CC1(C)C[C@@](C)(O)CCCCCCOc2c(CN)cccc2NC(=O)c2nc(cnc2N)-c2ccc(cc2)S1(=O)=O (single isomer, unassigned) [Compound C-1] | – | 1e-05 µM | (72%) | (107%) | (83%) | (115%)
– | 4.46 nM | 7.84 nM | – | – | – | CC1(C)C[C@@H](O)CCCCCCOc2c(CN)cccc2NC(=O)c2nc(cnc2N)-c2ccc(cc2)S1(=O)=O (single isomer, unassigned) [Compound H-1] | – | 4e-05 µM | (89%) | (71%) | – | –
2.39 nM | 3.49 nM | 8.28 nM | 3.61 nM | 1.68 nM | 2.19 nM | CNCc1cccc2c1OCCCCCCC(C)(O)CC(C)(C)S(=O)(=O)c1ccc(cc1)-c1cnc(N)c(n1)C(=O)N2 (racemic) [Compound A, 5-amino-22-hydroxy-22,24,24-trimethyl-13-(methylaminomethyl)-25,25-dioxo-15-oxa-25λ^6-thia-4,8,31-triazatetracyclo[24.2.2.1^2,6.0^9,14]hentriaconta-1(28),2(31),3,5,9(14),10,12,26,29-nonaen-7-one] | (88%) | 2e-05 µM | (74%) | (73%) | (71%) | (111%)
1.08 nM | 2.06 nM | 4.32 nM | 3.6 nM | 6.8 nM | 3.85 nM | CC1(O)CCCCCCOc2c(CN)cccc2NC(=O)c2nc(cnc2N)-c2ccc(cc2)S(=O)(=O)C(C)(C)C1 (racemic) [Compound C, 5-amino-13-(aminomethyl)-22-hydroxy-22,24,24-trimethyl-25,25-dioxo-15-oxa-25λ^6-thia-4,8,31-triazatetracyclo[24.2.2.1^2,6.0^9,14]hentriaconta-1(28),2(31),3,5,9(14),10,12,26,29-nonaen-7-one] | (100%) | 1e-05 µM | (65%) | (90%) | (73%) | (158%)
